SMILES strings stand for the structures.

As usually defined, the melting point is the temperature of the solid-liquid transition. `CO/N=C(C)/C(=N/N=C/c1ccccc1-n1c(OC)nn(C)c1=O)C1CC1` returned a melting point of 146 to 148 °C.

Take `CON=C(C(C)=NN=Cc1ccccc1-n1c(OC)nn(C)c1=O)c1cccc(C(F)(F)F)c1`: the melting point lay within 157 to 161 °C.

These data come from US6436981B1 (dated 2002).
